In patent US9681664B2, “Macrocyclic picolinamides as fungicides” (Dow Agrosciences LLC, priority 2012, dated 2017):
Where two headings read alike, the source gives them in different places.

Assays:
[1] = system: Puccinia triticina; Synonym: Puccinia recondite f. sp. tritici; assay: Wheat brown rust (PUCCRT) disease control on wheat seedlings; format: in vivo; settings: 100 ppm; for pest or weed control at 100 ppm: Puccinia triticina
Experimental: Technical grades of materials were dissolved in acetone, which were then mixed with nine volumes of water containing 110 ppm Triton X-100. The fungicide solutions were applied onto wheat seedlings using an automated booth sprayer to run-off. All sprayed plants were allowed to air dry prior to further handling. All fungicides were evaluated using the aforementioned method for their activity vs. all target diseases. Wheat leaf blotch and brown rust activity were also evaluated using track spray applications, in which case the fungicides were formulated as EC formulations, containing 0.1% Trycol 5941 in the spray solutions. Wheat plants (variety Yuma) were grown from seed in a greenhouse in 50% mineral soil/50% soil-less Metro mix until the first leaf was fully emerged, with 7-10 seedlings per pot. These plants were inoculated with an aqueous spore suspension of Puccinia triticina either prior to or after fungicide treatments. After inoculation the plants were kept in a dark dew room at 22° C. with 100% relative humidity overnight to permit spores to germinate and infect the leaf. The plants were then transferred to a greenhouse set at 24° C. for disease to develop. Fungicide formulation, application and disease assessment followed the procedures as described in the Example A.

[2] = system: Mycosphaerella graminicola; Anamorph: Septoria tritici; assay: Leaf blotch of wheat (SEPTTR) disease control on wheat seedlings; format: in vivo; settings: 100 ppm; for pest or weed control at 100 ppm: Zymoseptoria tritici
Experimental: Technical grades of materials were dissolved in acetone, which were then mixed with nine volumes of water containing 110 ppm Triton X-100. The fungicide solutions were applied onto wheat seedlings using an automated booth sprayer to run-off. All sprayed plants were allowed to air dry prior to further handling. All fungicides were evaluated using the aforementioned method for their activity vs. all target diseases. Wheat leaf blotch and brown rust activity were also evaluated using track spray applications, in which case the fungicides were formulated as EC formulations, containing 0.1% Trycol 5941 in the spray solutions. Wheat plants (variety Yuma) were grown from seed in a greenhouse in 50% mineral soil/50% soil-less Metro mix until the first leaf was fully emerged, with 7-10 seedlings per pot. These plants were inoculated with an aqueous spore suspension of Septoria tritici either prior to or after fungicide treatments. After inoculation the plants were kept in 100% relative humidity (one day in a dark dew chamber followed by two to three days in a lighted dew chamber at 20° C.) to permit spores to germinate and infect the leaf. The plants were then transferred to a greenhouse set at 20° C. for disease to develop. When disease symptoms were fully expressed on the 1st leaves of untreated plants, infection levels were assessed on a scale of 0 to 100 percent disease severity. Percent disease control was calculated using the ratio of disease severity on treated plants relative to untreated plants.

[3] = 24 h, High volume application, 1 Day Protectant, read-out: PUCCRT 1DP disease control
[4] = 72 h, High volume application, 3 Day Curative, read-out: PUCCRT 3DC disease control
[5] = 24 h, High volume application, 1 Day Protectant, read-out: SEPTTR 1DP disease control
[6] = 72 h, High volume application, 3 Day Curative, read-out: SEPTTR 3DC disease control
[7] = High volume application, 1 Day Protectant
[8] = High volume application, 3 Day Curative
[9] = 24 h, Wheat Brown Rust, 1 Day Protectant, high volume application, read-out: Disease Control PUCCRT 1 DP 100 ppm
[10] = 72 h, Wheat Brown Rust, 3 Day Curative, high volume application, read-out: Disease Control PUCCRT 3 DC 100 ppm
[11] = 24 h, Wheat Leaf Blotch, 1 Day Protectant, high volume application, read-out: Disease Control SEPTTR 1 DP 100 ppm
[12] = 72 h, Wheat Leaf Blotch, 3 Day Curative, high volume application, read-out: Disease Control SEPTTR 3 DC 100 ppm

Compound | pest or weed control at 100 ppm [1, 3] [%] | pest or weed control at 100 ppm [1, 4] [%] | pest or weed control at 100 ppm [2, 5] [%] | pest or weed control at 100 ppm [2, 6] [%] | also measured
COc1ccnc(C(=O)N[C@H]2CCC[C@H](Oc3ccccc3)[C@@H](OCCCC(F)(F)F)[C@H](C)OC2=O)c1OC(C)=O [F109] | 80 to 100 | 80 to 100 | 80 to 100 | 80 to 100 | 
COc1ccnc(C(=O)N[C@H]2CCC[C@H](OCC(C)C)[C@@H](OCCCc3ccccc3)[C@H](C)OC2=O)c1OCOC(C)=O [F43] | 80 to 100 | 80 to 100 | 80 to 100 | 80 to 100 | 
CCc1ccnc(C(=O)N[C@H]2CCC[C@H](OCC(C)C)[C@@H](OCCC(C)OC)[C@H](C)OC2=O)c1O (stereo partly drawn) [F71] | 0 to 80 | 80 to 100 | 0 to 80 | 0 to 80 | 
[4-methoxy-2-[[(3S,7S,8S,9S)-9-methyl-7,8-bis(2-methylallyloxy)-2-oxo-oxonan-3-yl]carbamoyl]-3-pyridyl]oxymethyl-2-methylpropanoate [F17] |  |  |  |  | PUCCRT 1DP disease control [1, 7]: A (80-100); PUCCRT 3DC disease control [1, 8]: A (80-100); SEPTTR 1DP disease control [2, 7]: A (80-100); SEPTTR 3DC disease control [2, 8]: A (80-100)
COc1ccnc(C(=O)N[C@H]2CCC[C@H](OCC(C)C)[C@@H](OC)[C@H](C)OC2=O)c1O [F247] |  |  |  |  | pest or weed control at 100 ppm [1, 9]: 80 to 100%; pest or weed control at 100 ppm [1, 10]: 80 to 100%; pest or weed control at 100 ppm [2, 11]: 80 to 100%; pest or weed control at 100 ppm [2, 12]: 0 to 80%
COc1ccnc(C(=O)N[C@H]2CCC[C@H](Oc3ccccc3)[C@@H](OC)[C@H](C)OC2=O)c1O [F249] |  |  |  |  | pest or weed control at 100 ppm [1, 9]: 80 to 100%; pest or weed control at 100 ppm [1, 10]: 80 to 100%; pest or weed control at 100 ppm [2, 11]: 0 to 80%; pest or weed control at 100 ppm [2, 12]: 0 to 80%
CCCO[C@H]1CCC[C@H](NC(=O)c2nccc(OC)c2O)C(=O)O[C@@H](C)[C@@H]1Oc1ccc(F)cc1 [F262] |  |  |  |  | pest or weed control at 100 ppm [1, 9]: 0 to 80%; pest or weed control at 100 ppm [1, 10]: 80 to 100%; pest or weed control at 100 ppm [2, 11]: 80 to 100%; pest or weed control at 100 ppm [2, 12]: 80 to 100%
COc1ccnc(C(=O)N[C@H]2CCC[C@H](OCC(C)C)[C@@H](Oc3ccc(C)cc3)[C@H](C)OC2=O)c1OCOC(=O)C(C)C [F101] | 80 to 100 | 80 to 100 | 80 to 100 | 80 to 100 | 
COc1ccnc(C(=O)N[C@H]2CCC[C@H](OCC(C)C)[C@@H](OCCC(C)OC)[C@H](C)OC2=O)c1OC(C)=O (stereo partly drawn) [F83] | 80 to 100 | 80 to 100 | 80 to 100 | 80 to 100 | 
COc1ccnc(C(=O)N[C@H]2CCC[C@H](OC3CCCC3)[C@@H](OC(=O)C3CC3)[C@H](C)OC2=O)c1OCOC(C)=O [F144] | 80 to 100 | 80 to 100 | 80 to 100 | 80 to 100 | 
COc1ccnc(C(=O)N[C@H]2CCC[C@H](OC(=O)C3CCCC3)[C@@H](OC(=O)C3CCCC3)[C@H](C)OC2=O)c1OC(C)=O [F91] | 80 to 100 | 80 to 100 | 80 to 100 | 80 to 100 | 
COc1ccnc(C(=O)N[C@H]2CCC[C@H](OCCCC(F)(F)F)[C@@H](Oc3ccccc3)[C@H](C)OC2=O)c1O [F129] | 80 to 100 | 80 to 100 | 80 to 100 | < 0 | 
